Test results: US20130184337A1, “SODIUM ASCORBATE STIMULATION OF ELASTOGENESIS” (THE HOSPITAL FOR SICK CHILDREN, priority 2012, published 2013)
Entries after “also recorded” stand apart in the source; their conditions may differ.

Assays:
[1] = tested on: fat tissue-derived fibroblasts; assay: Elastin deposition (immuno-staining morphometry, insoluble elastin assay) in fat-derived fibroblasts; assay type: cell-based, human; conditions: 50-200 μM, on average, p<0.01
Method: Cell Cultures-Fibroblasts initially grew out from the explants of these full thickness skin biopsies and were maintained. The primary cultures of fat-derived fibroblasts obtained from Thermogenesis (Rancho Cordova, Calif.) were also tested. In all described experiments, 2-4 passages of both kinds of fibroblasts were used. In experiments aimed at assessing ECM production, cells were initially plated at a concentration of 100,000 cells/dish. […] Immuno-staining-All cultures maintained in the presence and absence of indicated reagents were either fixed in cold 100% methanol at -20° C. (for detection of elastin) or in 4% paraformaldehyde at room temperature (for detection of collagen I). The multiple parallel cultures were then incubated with 10 μg/ml of polyclonal antibody to tropoelastin (Elastin Products, Owensville, Mich.), or polyclonal antibody to collagen type I (Chemicon, Temecula, Calif.). […] All of the cultures were then examined with a Nikon Eclipse […] microscope attached to a cooled CCD camera (QImaging, Retiga EX) and analyzed by the computer-generated morphometric analysis system (Image-Pro Plus software, Media Cybernetics, Silver Springs, Md.) as previously described. Quantitative Assays of Insoluble Elastin-Fibroblasts were grown to confluency in 35-mm culture dishes (100,000 cells/dish). […]

[2] = tested on: intracellular tropoelastin; assay: Western blot of intracellular tropoelastin; assay type: cell-based, human; conditions: 50-200 μM, 20-hour-old cultures, 5% FBS
Method: Western Blots—At the end of indicated experiments, cells were lysed with NP-40 buffer containing a cocktail of broad spectrum inhibitors of proteinases and phosphatases. The 50 μg aliquots of protein extract were then resolved by SDS-PAGE gel (4-12% gradient) in reducing conditions and analyzed by Western blot with antibodies indicated in figure legends, as previously described. Initial blots were also re-probed with monoclonal anti-β-actin antibody (Cell Signaling Technology Inc., Danvers, Mass.) to confirm the equal protein loading. The degree of expression was measured by densitometry.

[3] = biological target: T1, IGF-1 receptor (Homo sapiens, UniProt P08069); assay: IGF-1R phosphorylation (immuno-precipitation, anti-phospho-tyrosine Western blot); assay type: cell-based; conditions: for levels of IGF-1R phosphorylation: 100 μM SA alone
T1 construct: immuno-precipitated with antibody to β subunit of IGF-1R and detected by Western blotting with anti-phospho-tyrosine antibody; endogenous in cells; host or cells: cultured dermal fibroblasts
T1 sequence (P08069 741-1367 limits assumed): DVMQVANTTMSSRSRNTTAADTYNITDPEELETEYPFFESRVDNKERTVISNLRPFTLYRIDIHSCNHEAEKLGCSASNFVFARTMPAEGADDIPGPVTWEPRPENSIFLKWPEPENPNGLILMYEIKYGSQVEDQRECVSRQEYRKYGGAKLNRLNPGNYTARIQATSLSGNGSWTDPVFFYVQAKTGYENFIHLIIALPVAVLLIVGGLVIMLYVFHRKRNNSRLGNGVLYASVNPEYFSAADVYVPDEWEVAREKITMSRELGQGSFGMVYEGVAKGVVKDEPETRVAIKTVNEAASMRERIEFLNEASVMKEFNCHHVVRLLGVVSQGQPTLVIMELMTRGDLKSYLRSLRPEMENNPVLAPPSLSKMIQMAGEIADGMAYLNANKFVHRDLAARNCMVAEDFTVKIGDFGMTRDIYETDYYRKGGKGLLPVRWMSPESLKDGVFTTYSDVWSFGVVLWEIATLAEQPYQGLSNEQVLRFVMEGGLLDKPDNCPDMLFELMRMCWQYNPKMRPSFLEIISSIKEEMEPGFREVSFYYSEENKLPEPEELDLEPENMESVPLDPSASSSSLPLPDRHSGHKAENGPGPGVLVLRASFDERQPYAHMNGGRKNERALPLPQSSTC
T1 sequence (P08069 31-736 partner limits assumed): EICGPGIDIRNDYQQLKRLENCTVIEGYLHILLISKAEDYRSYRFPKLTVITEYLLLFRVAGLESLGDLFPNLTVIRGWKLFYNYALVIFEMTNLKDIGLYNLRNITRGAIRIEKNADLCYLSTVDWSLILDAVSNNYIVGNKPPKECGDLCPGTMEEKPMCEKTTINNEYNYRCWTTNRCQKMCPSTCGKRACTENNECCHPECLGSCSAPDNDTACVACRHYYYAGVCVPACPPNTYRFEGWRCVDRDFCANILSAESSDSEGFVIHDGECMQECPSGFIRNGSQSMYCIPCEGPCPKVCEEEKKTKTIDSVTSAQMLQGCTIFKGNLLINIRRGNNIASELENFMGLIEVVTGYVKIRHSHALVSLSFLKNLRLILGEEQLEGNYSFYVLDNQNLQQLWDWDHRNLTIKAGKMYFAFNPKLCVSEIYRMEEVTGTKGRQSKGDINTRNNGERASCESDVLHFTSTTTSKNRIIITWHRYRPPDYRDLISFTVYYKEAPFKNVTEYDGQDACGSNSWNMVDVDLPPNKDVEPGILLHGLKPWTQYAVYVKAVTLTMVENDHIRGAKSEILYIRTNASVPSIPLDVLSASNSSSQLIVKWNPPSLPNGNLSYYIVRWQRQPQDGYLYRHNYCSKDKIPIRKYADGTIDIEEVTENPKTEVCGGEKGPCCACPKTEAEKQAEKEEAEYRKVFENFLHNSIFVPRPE
Method: At the end of each experiment cells were submerged in the lysis buffer containing a broad-range phosphatase inhibitor. The polyclonal antibodies recognizing either the β subunits of the IGF-IR or the β subunit of the insulin receptor were immobilized on separate sets of the IgG-bearing magnetic beads (Invitrogen Canada Inc, Burlington, ON) and then incubated for 1 hour with the aliquots of the cell lysates containing 400 μg of protein as described in the manufacturer protocol. The beads bearing the resulting immuno-precipitation products were re-suspended in sample buffer and the released proteins were resolved with SDS-PAGE and subjected to Western blotting with a monoclonal anti-p-Tyr (PY99) antibody from Santa Cruz Biotechnology Inc. (Santa Cruz, Calif.) and then with HRP-conjugated goat anti-mouse secondary antibody.

[4] = tested on: explants of dermal stretch marks; assay: Organ culture of skin explants (Movat pentachrome morphometry, insoluble elastin); assay type: cell-based, human; conditions: 200 μM, 10-day-long daily treatment
Method: The parallel quadruplicate explants from each experimental group were additionally maintained in the presence 2 μCi of [3H]-valine/ml and then subjected to the assay of insoluble elastin. The parallel explants from each experimental groups were also evaluated after pentachrome Movat's staining which allows for clear marking of elastic fibers. In each experimental group, 50 sections derived from quadruplicate explants were analyzed.

[5] = tested on: normal dermal fibroblasts; assay: Collagen fiber deposition (immuno-staining of collagen type I, morphometry); assay type: cell-based, human; conditions: 100 μM, 24-hour-old cultures, 5% FBS
Method: Cell Cultures—Fibroblasts initially grew out from the explants of these full thickness skin biopsies and were maintained. The primary cultures of fat-derived fibroblasts obtained from Thermogenesis (Rancho Cordova, Calif.) were also tested. In all described experiments, 2-4 passages of both kinds of fibroblasts were used. In experiments aimed at assessing ECM production, cells were initially plated at a concentration of 100,000 cells/dish. Confluent cultures were then maintained either in serum-free medium (DMEM) or in medium supplemented with 5% FBS in the presence of different reagents that were added 1 hour before treatments with SA.
Immuno-staining—All cultures maintained in the presence and absence of indicated reagents were either fixed in cold 100% methanol at −20° C. (for detection of elastin) or in 4% paraformaldehyde at room temperature (for detection of collagen I). The multiple parallel cultures were then incubated with 10 μg/ml of polyclonal antibody to tropoelastin (Elastin Products, Owensville, Mich.), or polyclonal antibody to collagen type I (Chemicon, Temecula, Calif.). Cultures were then incubated with the respective fluorescein-conjugated goat anti-rabbit, goat anti-mouse, or rabbit anti-goat secondary antibodies. Nuclei were counterstained with propidium iodide (Sigma, Sigma, St. Louis, Mo.). All of the cultures were then examined with a Nikon Eclipse E1000 microscope attached to a cooled CCD camera (QImaging, Retiga EX) and analyzed by the computer-generated morphometric analysis system (Image-Pro Plus software, Media Cybernetics, Silver Springs, Md.) as previously described.

[6] = tested on: reactive oxygen species (ROS); assay: Intracellular ROS with CM-H2DCFDA probe (fluorescence microscope, flow cytophotometry); assay type: cell-based, human; conditions: 100 μM, 2 hours
Method: Quantification of Intracellular free radicals-reactive oxygen species (ROS)—To assess the levels of ROS, quadruplicate cultures of normal skin fibroblasts were exposed to 10 μM of ROS-sensitive CM-H2DCFDA fluorescent probe (Molecular Probes, Eugene, Oreg.) for 30 minutes. This probe passively diffuses into the cell interior and only upon oxidation is a fluorescent product released that can be visualized under a fluorescent microscope or captured by flow cytophotometry when excited at 480 nm. Fibroblasts were then maintained for 30 minutes in the presence or absence of 400 μM probenecid, then incubated either for 2 or 24 hours with and without 100 μM AA or 100 μM SA. At the end of these periods the images were captured using a fluorescent microscope under identical parameters of contrast and brightness. The ROS production was also assessed by flow cytophotometry (λ excitation 480 nm; λ emission 520 nm), using FACSCalibur, Beckton Dickinson Instrument.

## O=C1O[C@H]([C@@H](O)CO)C([O-])=C1O.[Na+] [SA, (+)-sodium L-ascorbate]
[1]
  increase in elastin deposition: 22%+/−4%
[2]
  levels of newly synthesized tropoelastin: increase in the levels of newly synthesized tropoelastin
[3]; medium with FBS
  levels of IGF-1R phosphorylation: remarkably enhanced levels of IGF-1R phosphorylation; also recorded: enhances the level of phosphorylation of the IGF-1R
[3]; serum-free medium
  levels of IGF-1R phosphorylation: did not reveal any increase in IGF-1R phosphorylation
[3]; 100 μM SA plus 50 ng/ml IGF-1, both tested media
  levels of IGF-1-induced IGF-1R phosphorylation: significantly enhanced the levels of phosphorylated IGF-IR; also recorded: enhances levels of IGF-1-induced IGF-IR phosphorylation in both tested media
[4]
  elastogenesis: restored the practically non-existent elastogenesis
[5]
  deposition of immuno-detected collagen fibers: more potent up-regulation in the deposition of immuno-detected collagen fibers than 100 μM AA; also recorded: more potent upregulation in collagen fibers deposition than 100 μM AA
[6]
  levels of intracellular ROS: significantly lower levels of ROS
